Source: US20250129078A1, “ERBB2 INHIBITORS” (Cogent Biosciences, Inc., priority 2023, published 2025)
Structures can show the parent of a compound that is named as a salt. Where two headings read alike, the source gives them in different places.

What was measured:
ErbB2 V777L = ErbB2 V777L (Homo sapiens (Human), UniProt P04626, V777L); experiment: ErbB enzyme assay (CisBio HTRF-KinEASE-TK), ErbB2 V777L; type: biochemical
Experimental: In vitro enzyme assays based on CisBio HTRF-KinEASE-TK technology were used to determine compound potencies. […] After another 1 h incubation at ambient temperature, the extent of substrate phosphorylation was determined using a PerkinElmer EnVision multimode plate reader via time-resolved fluorescence dual wavelength detection. The percent of control (POC) was calculated using the ratio of emission at […] to the emission at 620 nm. One hundred POC was determined using DMSO only controls (no test compounds present) and zero POC was determined using pre-quenched controls reactions. A 4-parameter logistic equation was fit to the POC values as a function of the test compound concentration and the IC50 value was determined as the point where the curve crossed 50 POC.

EGFR WT = EGFR WT (Homo sapiens (Human), UniProt P00533); experiment: ErbB enzyme assay (CisBio HTRF-KinEASE-TK), EGFR WT; type: biochemical; conditions: ATP at Km (25 μM), 1 h incubation
Chain of EGFR WT (P00533 25-1210): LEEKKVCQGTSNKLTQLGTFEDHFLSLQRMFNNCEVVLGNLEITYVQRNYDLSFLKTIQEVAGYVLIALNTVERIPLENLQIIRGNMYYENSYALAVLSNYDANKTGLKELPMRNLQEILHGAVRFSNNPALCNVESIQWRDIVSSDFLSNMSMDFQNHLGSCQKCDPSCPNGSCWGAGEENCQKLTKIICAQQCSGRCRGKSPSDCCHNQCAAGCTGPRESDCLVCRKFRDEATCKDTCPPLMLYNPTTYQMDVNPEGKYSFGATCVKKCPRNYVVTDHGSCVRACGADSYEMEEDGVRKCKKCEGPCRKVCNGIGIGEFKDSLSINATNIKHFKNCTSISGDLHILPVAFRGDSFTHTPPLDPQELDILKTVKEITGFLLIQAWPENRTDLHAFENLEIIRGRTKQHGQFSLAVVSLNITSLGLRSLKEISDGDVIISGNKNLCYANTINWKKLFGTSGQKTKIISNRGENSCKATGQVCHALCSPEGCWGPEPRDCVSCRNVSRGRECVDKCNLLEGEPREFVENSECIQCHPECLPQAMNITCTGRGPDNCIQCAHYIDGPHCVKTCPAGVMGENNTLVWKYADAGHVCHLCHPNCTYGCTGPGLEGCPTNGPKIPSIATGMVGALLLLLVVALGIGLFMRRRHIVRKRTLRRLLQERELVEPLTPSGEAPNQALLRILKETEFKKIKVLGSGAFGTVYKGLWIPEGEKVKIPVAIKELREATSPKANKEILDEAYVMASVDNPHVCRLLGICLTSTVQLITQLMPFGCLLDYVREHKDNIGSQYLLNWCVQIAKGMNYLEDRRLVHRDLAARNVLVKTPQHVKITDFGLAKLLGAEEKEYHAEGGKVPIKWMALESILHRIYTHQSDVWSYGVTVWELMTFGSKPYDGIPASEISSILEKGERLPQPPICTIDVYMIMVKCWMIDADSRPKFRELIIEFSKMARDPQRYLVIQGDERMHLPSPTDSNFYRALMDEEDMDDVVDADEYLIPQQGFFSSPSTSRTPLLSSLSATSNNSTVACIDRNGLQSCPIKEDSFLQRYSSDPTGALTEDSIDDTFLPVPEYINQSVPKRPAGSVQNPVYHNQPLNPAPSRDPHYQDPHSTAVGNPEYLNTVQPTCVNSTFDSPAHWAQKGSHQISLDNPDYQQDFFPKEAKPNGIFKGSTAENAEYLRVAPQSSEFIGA
In short: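 Compounds, serially diluted three-fold, were incubated with enzyme for 1 h at ambient temperature. Detection reagents were then added for a further hour, and the 655/620 nm HTRF ratio was normalised to uninhibited and pre-quenched controls. IC50 was fitted with a four-parameter logistic model.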

[1] = ErbB2 V777L enzyme, ATP at Km (110 μM), 1 h incubation

Chain of ErbB2 V777L (P04626 23-1255 V777L): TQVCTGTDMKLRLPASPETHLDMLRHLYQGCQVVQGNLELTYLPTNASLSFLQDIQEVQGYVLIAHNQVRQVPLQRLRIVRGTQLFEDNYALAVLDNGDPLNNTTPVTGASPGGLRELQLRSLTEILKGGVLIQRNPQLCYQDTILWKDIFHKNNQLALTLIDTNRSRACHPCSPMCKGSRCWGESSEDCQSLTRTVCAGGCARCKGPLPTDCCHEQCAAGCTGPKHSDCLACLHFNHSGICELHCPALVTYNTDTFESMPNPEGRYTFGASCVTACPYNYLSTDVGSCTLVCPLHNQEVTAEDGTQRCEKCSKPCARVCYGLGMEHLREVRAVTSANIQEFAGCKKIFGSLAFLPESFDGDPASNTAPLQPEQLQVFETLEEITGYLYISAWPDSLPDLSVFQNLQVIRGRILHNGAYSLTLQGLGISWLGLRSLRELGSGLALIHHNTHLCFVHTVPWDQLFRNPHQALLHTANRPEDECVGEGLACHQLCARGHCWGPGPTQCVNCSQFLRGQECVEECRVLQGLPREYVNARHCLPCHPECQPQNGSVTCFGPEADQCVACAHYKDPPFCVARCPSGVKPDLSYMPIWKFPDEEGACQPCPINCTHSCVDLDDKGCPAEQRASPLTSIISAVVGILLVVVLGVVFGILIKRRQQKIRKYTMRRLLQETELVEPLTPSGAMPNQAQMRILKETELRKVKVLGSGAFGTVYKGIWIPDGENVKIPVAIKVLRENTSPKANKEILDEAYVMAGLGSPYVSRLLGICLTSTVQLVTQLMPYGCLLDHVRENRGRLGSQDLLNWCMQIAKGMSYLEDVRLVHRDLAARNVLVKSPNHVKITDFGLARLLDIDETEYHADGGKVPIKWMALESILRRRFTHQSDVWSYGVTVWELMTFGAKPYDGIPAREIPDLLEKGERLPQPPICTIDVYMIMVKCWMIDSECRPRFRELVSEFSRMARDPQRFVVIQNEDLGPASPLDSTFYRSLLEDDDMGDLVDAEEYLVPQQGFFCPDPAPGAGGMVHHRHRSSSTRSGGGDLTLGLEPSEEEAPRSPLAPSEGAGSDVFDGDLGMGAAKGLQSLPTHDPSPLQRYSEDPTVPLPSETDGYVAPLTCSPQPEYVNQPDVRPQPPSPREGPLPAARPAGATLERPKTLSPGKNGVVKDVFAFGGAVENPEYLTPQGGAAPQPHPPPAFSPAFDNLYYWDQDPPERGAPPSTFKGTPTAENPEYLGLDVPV

**Q.** What does the source list for `C=CC(=O)N1CCCN(c2ccc3ncnc(Nc4ccc(Oc5ccc6c(c5)nnn6C)c(C)c4)c3n2)C[C@@H]1C` [Compound 284, (S)-1-(2-methyl-4-(4-((3-methyl-4-((1-methyl-1H-benzo[d][1,2,3]triazol-5-yl)oxy)phenyl)amino)pyrido[3,2-d]pyrimidin-6-yl)-1,4-diazepan-1-yl)prop-2-en-1-one]?
**A.** IC50 (ErbB2 V777L): 500 to 1000 nM; IC50 (EGFR WT): ≥ 1000 nM

**Q.** `C=CC(=O)N1CCN(c2ccc3ncnc(Nc4ccc(Oc5ccc6c(c5)ncn6C(F)F)c(C)c4F)c3n2)C[C@H]1C` [Compound 253, (R)-1-(4-(4-((4-((1-(difluoromethyl)-1H-benzo[d]imidazol-5-yl)oxy)-2-fluoro-3-methylphenyl)amino)pyrido[3,2-d]pyrimidin-6-yl)-2-methylpiperazin-1-yl)prop-2-en-1-one] was tested. Which IC50 (ErbB2 V777L) did it give?
**A.** 50 to 100 nM

**Q.** And the IC50 (EGFR WT)?
**A.** 100 to 500 nM

**Q.** Which IC50 (ErbB2 V777L) does the source give for `C=CC(=O)N1CCN(c2ccc3ncnc(Nc4ccc(Oc5cc6ncn(C)c6nc5C)c(C)c4)c3n2)C[C@H]1C` [Compound 247, (R)-1-(4-(4-((4-((3,5-dimethyl-3H-imidazo[4,5-b]pyridin-6-yl)oxy)-3-methylphenyl)amino)pyrido[3,2-d]pyrimidin-6-yl)-2-methylpiperazin-1-yl)prop-2-en-1-one] here?
**A.** 50 to 100 nM

**Q.** And the IC50 (EGFR WT)?
**A.** 500 to 1000 nM

**Q.** What does the source list for `C=CC(=O)N1CCN(c2ccc3ncnc(Nc4cc(F)c(Oc5ccc6c(c5)nnn6C)c(C)c4F)c3n2)C[C@H]1C` [Compound 326, (R)-1-(4-(4-((2,5-difluoro-3-methyl-4-((1-methyl-1H-benzo[d][1,2,3]triazol-5-yl)oxy)phenyl)amino)pyrido[3,2-d]pyrimidin-6-yl)-2-methylpiperazin-1-yl)prop-2-en-1-one]?
**A.** IC50 (ErbB2 V777L): 50 to 100 nM; IC50 (EGFR WT): 100 to 500 nM

**Q.** What does the source list for `C=CC(=O)N1C[C@H](C)N(c2ncc3ncnc(Nc4ccc(Oc5ccc6c(c5)nnn6C)c(C)c4)c3n2)C[C@@H]1C` [Compound 187, 1-((2S,5S)-2,5-dimethyl-4-(8-((3-methyl-4-((1-methyl-1H-benzo[d][1,2,3]triazol-5-yl)oxy)phenyl)amino)pyrimido[5,4-d]pyrimidin-2-yl)piperazin-1-yl)prop-2-en-1-one]?
**A.** IC50 (ErbB2 V777L): 50 to 100 nM; IC50 (EGFR WT): 100 to 500 nM

**Q.** With `C=CC(=O)N1CCN(c2ncc3ncnc(Nc4ccc(Oc5ccc6c(c5)nnn6CC)c(C)c4)c3n2)CC1` [Compound 133, 1-(4-(8-((4-((1-ethyl-1H-benzo[d][1,2,3]triazol-5-yl)oxy)-3-methylphenyl)amino)pyrimido[5,4-d]pyrimidin-2-y1)piperazin-1-yl)prop-2-en-1-one] as the molecule, how does the IC50 (ErbB2 V777L) read?
**A.** 100 to 500 nM

**Q.** And the IC50 (EGFR WT)?
**A.** 500 to 1000 nM

**Q.** For `C=CC(=O)N1C2C=C(c3ccc4ncnc(Nc5ccc(Oc6ccc7c(c6)nnn7C)c(C)c5)c4n3)CC1CC2` (stereo not drawn) [Compound 409, 1-(3-(4-((3-methyl-4-((1-methyl-1H-benzo[d][1,2,3]triazol-5-yl)oxy)phenyl)amino)pyrido[3,2-d]pyrimidin-6-yl)-8-azabicyclo[3.2.1]oct-2-en-8-yl)prop-2-en-1-one trifluoroacetate], which IC50 (ErbB2 V777L) is on record?
**A.** 50 to 100 nM

**Q.** What about the IC50 (EGFR WT) of the same molecule?
**A.** 100 to 500 nM

**Q.** `C=CC(=O)N1CCN(c2ccc3ncnc(Nc4cc(C)c(Oc5ccc6c(c5)nnn6C)cc4OC(F)(F)F)c3n2)C[C@H]1C` [Compound 317, (R)-1-(2-methyl-4-(4-((5-methyl-4-((1-methyl-1H-benzo[d][1,2,3]triazol-5-yl)oxy)-2-(trifluoromethoxy)phenyl)amino)py-rido[3,2-d]pyrimidin-6-yl)piperazin-1-yl)prop-2-en-1-one] was tested. Which IC50 (ErbB2 V777L) did it give?
**A.** 100 to 500 nM

**Q.** And the IC50 (EGFR WT)?
**A.** 100 to 500 nM

**Q.** How did the IC50 (ErbB2 V777L) turn out when `C=CC(=O)N1CCN(c2ncc3ncnc(Nc4ccc(Oc5ccc6c(c5)nnn6C)c(C)c4)c3n2)[C@H](C)C1` [Compound 17, (R)-1-(3-methyl-4-(8-((3-methyl-4-((1-methyl-1H-benzo[d][1,2,3]triazol-5-yl)oxy)phenyl)amino)pyrimido[5,4-d]pyrimidin-2-yl)piperazin-1-yl)prop-2-en-1-one] was run?
**A.** 100 to 500 nM

**Q.** What about the IC50 (EGFR WT) of the same molecule?
**A.** 500 to 1000 nM

**Q.** For `C=CC(=O)N[C@@H]1C[C@H](F)CN(c2ccc3ncnc(Nc4ccc(Oc5ccc6c(c5)nnn6C)c(C)c4F)c3n2)C1` [Compound 298, N-((3R,5S)-5-fluoro-1-(4-((2-fluoro-3-methyl-4-((1-methyl-1H-benzo[d][1,2,3]triazol-5-yl)oxy)phenyl)amino)pyrido[3,2-d]pyrimidin-6-yl)piperidin-3-yl)acrylamide], which IC50 (ErbB2 V777L) is on record?
**A.** 50 to 100 nM

**Q.** And the IC50 (EGFR WT)?
**A.** < 50 nM

**Q.** With `C=CC(=O)N1CCN(c2ncc3ncnc(Nc4cc(C)c(Oc5cc(F)c6c(c5)nnn6C)cc4OC)c3n2)C[C@H]1C` [Compound 166, (R)-1-(4-(8-((4-((7-fluoro-1-methyl-1H-benzo[d][1,2,3]triazol-5-yl)oxy)-2-methoxy-5-methylphenyl)amino)pyrimido[5,4-d]pyrimidin-2-y1)-2-methylpiperazin-1-yl)prop-2-en-1-one] as the molecule, how does the IC50 (ErbB2 V777L; [1]) read?
**A.** 500 to 1000 nM

**Q.** How did the IC50 (ErbB2 V777L; [1]) turn out when `C=CC(=O)N1CCCN(c2ccc3ncnc(Nc4ccc(Oc5ccc6c(c5)nnn6C)c(C)c4)c3n2)CC1` [Compound 353, 1-(4-(4-((3-methyl-4-((1-methyl-1H-benzo[d][1,2,3]triazol-5-yl)oxy)phenyl)amino)pyrido[3,2-d]pyrimidin-6-yl)-1,4-diazepan-1-yl)prop-2-en-1-one] was run?
**A.** 100 to 500 nM

**Q.** For `C=CC(=O)N1CCN(c2ncc3ncnc(Nc4ccc(Oc5ccc6c(c5)nnn6C)c(C)c4)c3n2)C[C@H]1CO` [Compound 24, (S)-1-(2-(hydroxymethyl)-4-(8-((3-methyl-4-((1-methyl-1H-benzo[d][1,2,3]triazol-5-yl)oxy)phenyl)amino)pyrimido[5,4-d]pyrimidin-2-yl)piperazin-1-yl)prop-2-en-1-one], which IC50 (EGFR WT) is on record?
**A.** 100 to 500 nM

**Q.** For `C=CC(=O)N1[C@H](C)CN(c2ncc3ncnc(Nc4ccc(Oc5ccc6c(c5)nnn6C)c(C)c4)c3n2)C[C@H]1C` [Compound 183, 1-((2R,6R)-2,6-dimethyl-4-(8-((3-methyl-4-((1-methyl-1H-benzo[d][1,2,3]triazol-5-yl)oxy)phenyl)amino)pyrimido[5,4-d]pyrimidin-2-yl)piperazin-1-yl)prop-2-en-1-one], which IC50 (EGFR WT) is on record?
**A.** ≥ 1000 nM

**Q.** For `C=C(F)C(=O)N1CC2CCC1CN2c1ncc2ncnc(Nc3ccc(Oc4ccc5c(c4)nnn5C)c(C)c3)c2n1` (stereo not drawn) [Compound 50, 2-fluoro-1-(5-(8-((3-methyl-4-((1-methyl-1H-benzo[d][1,2,3]triazol-5-yl)oxy)phenyl)amino)pyrimido[5,4-d]pyrimidin-2-yl)-2,5-diazabicyclo[2.2.2]octan-2-yl)prop-2-en-1-one], which IC50 (EGFR WT) is on record?
**A.** ≥ 1000 nM

**Q.** With `C=CC(=O)N1CCN(c2ccc3ncnc(Nc4cc(C)c(Oc5ccn6ncnc6c5)cc4OC)c3n2)CC1` [Compound 371, 1-(4-(4-((4-([1,2,4]triazolo[1,5-a]pyridin-7-yloxy)-2-methoxy-5-methylphenyl)amino)pyrido[3,2-d]pyrimidin-6-yl)piperazin-1-yl)prop-2-en-1-one] as the molecule, how does the IC50 (EGFR WT) read?
**A.** 50 to 100 nM

**Q.** How did the IC50 (EGFR WT) turn out when `C=CC(=O)N1CCN(c2ccc3ncnc(Nc4ccc(Oc5cc6nnn(C)c6cc5F)c(C)c4)c3n2)C[C@H]1C` [Compound 262, (R)-1-(4-(4-((4-((6-fluoro-1-methyl-1H-benzo[d][1,2,3]triazol-5-yl)oxy)-3-methylphenyl)amino)pyrido[3,2-d]pyrimidin-6-yl)-2-methylpiperazin-1-yl)prop-2-en-1-one] was run?
**A.** 100 to 500 nM

**Q.** `C=CC(=O)N1C[C@@H](N(C)c2ccc3ncnc(Nc4ccc(Oc5ccc6c(c5)nnn6C)c(C)c4F)c3n2)CC[C@H]1C` [Compound 352, 1-((2R,5S)-5-((4-((2-fluoro-3-methyl-4-((1-methyl-1H-benzo[d][1,2,3]triazol-5-yl)oxy)phenyl)amino)pyrido[3,2-d]pyrimidin-6-yl)(methyl)amino)-2-methylpiperidin-1-yl)prop-2-en-1-one] was tested. Which IC50 (EGFR WT) did it give?
**A.** 100 to 500 nM

**Q.** Which IC50 (EGFR WT) does the source give for `C=CC(=O)N1C2CCC1CN(c1ncc3ncnc(Nc4ccc(Oc5ccc6c(c5)nnn6C)c(C)c4)c3n1)C2` [Compound 47, 1-(3-(8-((3-methyl-4-((1-methyl-1H-benzo[d][1,2,3]triazol-5-yl)oxy)phenyl)amino)pyrimido[5,4-d]pyrimidin-2-yl)-3,8-diazabicyclo[3.2.1]octan-8-yl)prop-2-en-1-one] here?
**A.** 100 to 500 nM

**Q.** With `Cc1cc(Nc2ncnc3ccc(N4CC[C@@H](C)N(C(=O)/C=C/C(F)F)CC4)nc23)ccc1Oc1ccn2ncnc2c1` [Compound 367, (R,E)-1-(4-(4-((4-([1,2,4]triazolo[1,5-a]pyridin-7-yloxy)-3-methylphenyl)amino)pyrido[3,2-d]pyrimidin-6-yl)-7-methyl-1,4-diazepan-1-y1)-4,4-difluorobut-2-en-1-one] as the molecule, how does the IC50 (EGFR WT) read?
**A.** 500 to 1000 nM

**Q.** Which IC50 (EGFR WT) does the source give for `C=CC(=O)N1CC[C@H](N(C)c2ncc3ncnc(Nc4ccc(Oc5ccc6c(c5)nnn6C)c(C)c4)c3n2)C1` [Compound 131, (S)-1-(3-(methyl(8-((3-methyl-4-((1-methyl-1H-benzo[d][1,2,3]triazol-5-yl)oxy)phenyl)amino)pyrimido[5,4-d]pyrimidin-2-yl)amino)pyrrolidin-1-yl)prop-2-en-1-one] here?
**A.** < 50 nM

**Q.** With `C=CC(=O)N1CC[C@@H](N(C)c2ncc3ncnc(Nc4ccc(Oc5ccc6c(c5)nnn6C)c(C)c4)c3n2)C1` [Compound 128, (R)-1-(3-(methyl(8-((3-methyl-4-((1-methyl-1H-benzo[d][1,2,3]triazol-5-yl)oxy)phenyl)amino)pyrimido[5,4-d]pyrimidin-2-yl)amino)pyrrolidin-1-yl)prop-2-en-1-one] as the molecule, how does the IC50 (EGFR WT) read?
**A.** 100 to 500 nM

**Q.** For `C=CC(=O)N[C@H]1CCN(c2ncc3ncnc(Nc4ccc(Oc5ccc6c(c5)nnn6C)c(C)c4)c3n2)C1` [Compound 154, (S)-N-(1-(8-((3-methyl-4-((1-methyl-1H-benzo[d][1,2,3]triazol-5-yl)oxy)phenyl)amino)pyrimido [5,4-d]pyrimidin-2-yl)pyrrolidin-3-yl)acrylamide], which IC50 (EGFR WT) is on record?
**A.** 100 to 500 nM
